Laboratory results taken from patent US6906107B2, “Use of cyclohexenone derivatives for the manufacture of a medicament in the treatment of dysuria” (Meiji Dairies Corporation, priority 2001, dated 2005).

Assays:
STZ-administered rat [1] = assay: Test 2: bladder capacity and urination efficiency from intravesical pressure under anesthesia; assay type: in vivo; settings: Compound 4 i.p. 8 mg/kg daily for 8 weeks, mean ± S.E., p < 0.05 relative to STZ-administered group
Method: Test 2 (Bladder Capacity and Urination Efficiency)
In a similar manner to Test 1, Compound 4 obtained in Preparation Example 4 was administered intraperitoneally to a rat at a daily dose of 8 mg/kg for 8 weeks two days after administration of STZ. The intravesical pressure was measured under anesthesia. From the results, the bladder capacity and urination efficiency were determined.
Urination efficiency (%)=100×excreted amount/bladder capacity

STZ-administered rat [2] = assay: Test 1: maximum quantity excreted by single urination, metabolic cage, 24 hours; assay type: in vivo; settings: STZ 65 mg/kg i.p. rat; Compound 4 i.p. 8 mg/kg daily for 8 weeks; mean ± S.E.; p < 0.05 relative to STZ-administered group
Method: Test 1 (Maximum Quantity Excreted by Single Urination)
To a rat, 65 mg/kg of streptozotocin (STZ) was administered intraperitoneally. After intraperitoneal administration of Compound 4, which had been obtained in Preparation Example 4, at a daily dose of 8 mg/kg for 8 weeks from two days after administration of STZ, urination pattern such as urination frequency and urination amount was recorded for 24 hours at 2.5-min intervals by using a metabolic cage.

bladder smooth muscle = assay: Test 3: contractive force of extracted bladder smooth muscle after ischemia-reperfusion of abdominal aorta; assay type: in vivo, rat; settings: for Contractive force (contraction by carbachol) / Contractive force (contraction by concentrated potassium chloride): 30 minutes ischemia, 30 minutes reperfusion; for Contractive force (contraction by concentrated potassium chloride): potassium chloride 100 mM
Method: Test 3 ([…]) Compound 4 obtained in Preparation Example 4 was administered intraperitoneally to a rat immediately before the ischemia at a dose of 0.5, 2.0 and 8.0 mg/kg, and the rat was anesthetized by use of pentobarbital. Following 30 minutes ischemia of abdominal aorta of the rats, the abdominal aorta was subjected to perfusion for 30 minutes. Each bladder was then extracted and fixed in organbath filled with Krebs-Henseleit nutritive solution. By the use of TB-612T transducer (product of Nihonkoden), contractive force of bladder smooth muscle due to carbachol or concentrated potassium chloride (100 mM) was measured.

[3] = 0.5 mg/kg i.p. immediately before ischemia
[4] = 2.0 mg/kg i.p. immediately before ischemia
[5] = 8.0 mg/kg i.p. immediately before ischemia

## CC1=C(CCCCCCCCCCCCCCCO)C(C)(C)CCC1=O [Compound 4, 3-(15-Hydroxypentadecyl)-2,4,4-trimethyl-2-cyclohexen-1-one]
STZ-administered rat [1]; 100×excreted amount/bladder capacity
  Urination efficiency: 75.0±6.1%
STZ-administered rat [1]; urination-inducing bladder capacity
  Bladder capacity: 0.54 ± 0.07 mL
STZ-administered rat [2]
  Maximum amount excreted by single urination: 3.71 ± 0.26 mL
Bladder smooth muscle; [3]
  Contractive force (contraction by carbachol): 4.5 ± 0.5 g/mm^2
  Contractive force (contraction by concentrated potassium chloride): 3.0 ± 0.4 g/mm^2
Bladder smooth muscle; [4]
  Contractive force (contraction by carbachol): 5.4 ± 0.4 g/mm^2
  Contractive force (contraction by concentrated potassium chloride): 3.9 ± 0.3 g/mm^2
Bladder smooth muscle; [5]
  Contractive force (contraction by carbachol): 6.5 ± 0.5 g/mm^2
  Contractive force (contraction by concentrated potassium chloride): 3.9 ± 0.4 g/mm^2
Bladder smooth muscle; 0.5, 2.0 and 8.0 mg/kg i.p., summary of Tables 3 and 4
  Effect on contraction of bladder smooth muscle (in words): enhances contraction of bladder smooth muscle depending on its dose
